Assay results reported in patent US20250114511A1, “BLOOD PERFUSION DEVICE TO REDUCE SECONDARY INFECTION IN HOSPITAL” (SEOUL NATIONAL UNIVERSITY R&DB FOUNDATION, priority 2022, published 2025).
Entries after “also recorded” stand apart in the source; their conditions may differ. Where two headings read alike, the source gives them in different places.

Key:
[1] = tested on: PMNs isolated from healthy volunteers; assay: Chemotaxis to 100 nM fMLF of healthy volunteer PMNs exposed to septic shock patient plasma; type: cell-based, human; conditions: 10 μM CsH
Protocol: The effect of bead-anti-mtFP mixture treatment on PMN chemotaxis rescue was analyzed. PMS was isolated from blood samples obtained from healthy volunteers and exposed to untreated plasma from septic shock patients for 30 minutes in a 10-rpm rotator at 37° C. […] In order to estimate the capacity of non-FPR1-mediated PMN chemotaxis, separate PMNs exposed to bead anti-mtFP mixture-treated plasma were pretreated with 10 μM CsH 15 minutes prior to the chemotaxis experiment.
The inventors of the present disclosure investigated the chemotactic restoration effect of the anti-mtFP cocktail on PMNs by exposing PMNs from healthy volunteers to the plasma of septic shock patients treated with the anti-mtFP cocktail and then comparing PMN chemotaxis with plasma that had not received the anti-mtFP cocktail treatment.

[2] = tested on: PMNs isolated from septic shock patients with secondary infection; assay: Chemotaxis to 100 nM fMLF of PMNs from septic shock patients with secondary infection exposed to their own plasma; type: cell-based, human; conditions: 50 pg/mL recombinant LTB4 added to bead-anti-mtFP mixture treated plasma, 90 minutes
[3] = tested on: human polymorphonuclear cells (PMN); conditions: previous studies of the inventors; cited from earlier work
[4] = biological target: T1, formyl peptide receptor 1 (FPR1) (Homo sapiens, UniProt P21462); assay: PMN intracellular calcium mobilization (ER calcium depletion and calcium influx, fura2-AM)
T1 sequence (P21462 1-350): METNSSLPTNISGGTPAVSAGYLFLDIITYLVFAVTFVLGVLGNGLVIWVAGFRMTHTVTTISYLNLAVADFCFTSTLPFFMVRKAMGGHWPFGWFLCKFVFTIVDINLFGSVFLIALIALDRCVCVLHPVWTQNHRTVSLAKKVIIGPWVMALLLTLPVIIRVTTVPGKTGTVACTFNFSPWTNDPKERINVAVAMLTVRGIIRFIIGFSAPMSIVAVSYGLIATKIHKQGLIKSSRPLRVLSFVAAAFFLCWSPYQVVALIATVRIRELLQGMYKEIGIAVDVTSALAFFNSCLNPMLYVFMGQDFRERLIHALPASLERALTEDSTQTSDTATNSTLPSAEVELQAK
Protocol: Calcium mobilization within PMN cells was measured according to the following method. The separated PMN pellet was resuspended in pH 7.4 hydroxyethyl piperazine ethane sulfonic acid (HEPES) buffer solution. This HEPES buffer solution includes 20 mM HEPES, 140 mM NaCl, 5 mM potassium chloride (KCl), 1 mM magnesium chloride (MgCl2), 1 mM calcium chloride (CaCl2)), 10 mM glucose and 0.1% bovine serum albumin (BSA, A2058 Sigma-Aldrich). PMNs were loaded with fura2-AM (F1221, Thermo Fisher, Waltham, MA) for 45 minutes at 37° C.
Fluorescence was measured at 505 nm with 340/380 nm dual-wavelength excitation at 37° C. by using a spectrofluorometer (FluoroMax Plus-C, Horiba, Ltd., Kyoto, Japan). For the quantitative measurement of endoplasmic reticulum (ER) calcium depletion, PMNs were centrifuged at 200 g for 10 minutes at 4° C. PMN pellets were then resuspended in a calcium-free HEPES buffer solution including 0.3 mM ethylene glycol-bis(2-aminoethylether)-N,N,N′,N′-tetraacetic acid (EGTA, E3889, Sigma-Aldrich, St. Louis, MO), and stimulated with ND6 and fMLF or with ND6 alone. 0.1% dimethyl sulfoxide (DMSO) was added to the medium without ND6 or fMLF. After endoplasmic reticulum calcium was depleted, 1.8 mM CaCl2) was added to induce cytoplasmic calcium influx. Endoplasmic reticulum calcium depletion and calcium influx were assessed by measuring the 340 nm/380 nm ratio and quantified as AUC over 150 seconds (AUC150) and AUC over 100 seconds (AUC100), respectively. […]
In order to investigate which steps of intracellular calcium mobilization stimulated by FPR1 agonists directly correlate with PMN chemotaxis, the inventors of the present disclosure quantitatively measured the amounts of endoplasmic reticulum (ER) calcium depletion and subsequent calcium influx into the cytoplasm in isolated human PMNs obtained from healthy volunteers. […] The area under the curve (AUC) of ER calcium depletion over 150 seconds was calculated to quantify the amount of ER calcium depletion stimulated by ND6 (AUC150 primary) and fMLF (AUC150 secondary), respectively. […]

[5] = tested on: human polymorphonuclear cells (PMN)
Protocol: PMN chemotaxis was assessed by using multiScreen 96-well plates consisting of a 3-μm pore membrane (MAMIC3S10, Merck Millipore, Darmstadt, Germany). After preplanned treatment with ND6 or patient plasma, isolated human PMNs were centrifuged at 200 g for 10 minutes at 4° C. Afterwards, the PMN pellet was resuspended in Dulbecco's modified Eagle medium (DMEM, 11885-084, Thermo Fisher) containing 10% fetal bovine serum (FBS, F2442, Sigma-Aldrich). Before use, FBS was inactivated by heating at 56° C. for 1 hour. PMNs were placed in the upper chamber of the plate (0.1×10^6 PMNs at 75 μL per well), and medium containing 100 nM fMLF was placed in the lower chamber (150 μL per well). In medium without ND6 or fMLF, 0.1% DMSO was added.
Plates were incubated for 60 minutes in an incubator at 37° C. with 5% carbon dioxide (CO2). […] Afterwards, the contents were transferred to a 96-well plate, and fluorescence was measured at an excitation/emission wavelength of 480/520 nm with a cut-off of 515 nm. The number of migrated PMNs was calculated by using a standard curve derived from known PMN numbers. […]
After exposure to 100 nM ND6 for 30 minutes, PMNs were centrifuged at 220 g for 10 minutes at 4° C., and the supernatant was discarded. […] PMN chemotaxis at 30 and 90 minutes was measured as the number of PMNs migrated during 60-minute incubation between 30 and 90 minutes and 90 and 150 minutes, respectively.

FPR1 = FPR1 expression on PMN membranes by flow cytometry; type: cell-based, human; conditions: 100 nM ND6 for 30 minutes
Protocol: FPR1 expression on PMN membranes and the amount of CaMK2 in the homogenized PMN pellet were also detected by flow cytometry. In order to detect FPR1 on PMN membranes, PMNs (1.0×10^6 in 200 μL) were incubated with FITC-conjugated anti-human FPR1 antibody (2 μL, FAB3744F, R&D Systems, Minneapolis, MN) for 30 minutes at room temperature in the dark. FITC-conjugated mouse IgG2a, κ isotype control antibody (400210, BioLegend, San Diego, CA) was used as a negative control. After washing twice, fluorescence was measured. APC-conjugated anti-CaMK2 antibody (2 μL, ab225178, Abcam, Cambridge, UK) was used to detect the amount of CaMK2 in 200 μL of homogenized PMN pellet obtained by homogenization of 1.0×10^6/l mL PMN for 30 seconds at 4° C. and centrifugation at 20,000 g for 10 minutes. FPR1 expression in PMN membranes and the amount of CaMK2 in homogenized PMN pellets were quantified as mean fluorescence intensity (MFI) by using FlowJo version 10.0 (FlowJo, LLC, Ashland, OR). At least three independent experiments were performed.

For `C/C=C/C[C@@H](C)[C@@H](O)[C@H]1C(=O)N[C@@H](CC)C(=O)N(C)CC(=O)N(C)[C@@H](CC(C)C)C(=O)N[C@@H](C(C)C)C(=O)N(C)[C@@H](CC(C)C)C(=O)N[C@@H](C)C(=O)N[C@H](C)C(=O)N(C)[C@@H](CC(C)C)C(=O)N(C)[C@@H](CC(C)C)C(=O)N(C)[C@H](C(C)C)C(=O)N1C` [CsH, cyclosporine H], the “chemotaxis of CsH-treated PMNs versus CsH-free PMNs exposed to untreated plasma” value [1] was “not significantly different”.

With `CCCCC/C=C\C[C@@H](O)/C=C/C=C/C=C\[C@@H](O)CCCC(=O)O` [recombinant LTB4, leukotriene B4] the “restoration of PMN chemotaxis compared to PMN exposed to untreated plasma” value [2] was “effectively restored PMN chemotaxis” and the “restoration of PMN chemotaxis compared to PMN exposed to untreated plasma” value ([2]; listed as recombinant leukotriene B4 (LTB4)) was “significantly restored PMN chemotaxis”.

For “N-formyl-methionine-leucine-phenylalanine [fMLF]”, the “most potent concentration to induce FPR1-mediated PMN chemotaxis” value [3] is given as 100 nM.

With “N-formyl-methionine-methionine-tyrosine-alanine-leucine-phenylalanine [ND6]” the “ER calcium depletion and calcium influx in response to 100 nM fMLF” value ([4]; 100 nM ND6 for 30 minutes or more) was “inhibited; also recorded: did not completely inhibit”, the “inhibition of fMLF-stimulated secondary ER calcium depletion and subsequent calcium influx” value ([4]; 100 nM, 10 nM, 5 nM ND6, then 100 nM fMLF) was “dose-dependently inhibited” and the “PMN chemotaxis in response to 100 nM fMLF” value ([5]; 100 nM ND6 for 30 minutes) was “inhibited”. The “PMN chemotaxis in response to 100 nM fMLF” value ([5]; ND6-treated PMNs, 100, 10, 5 nM) was “dose-dependently inhibited” and the “FPR1 expression in PMN membranes (MFI)” value (FPR1) was “reduced FPR1 expression”.
